Columns and labels:
Type in all cases: in vivo
Settings in all cases: 250 g/ha, evaluated after 13 days, five-point scale
Setaria faberi (SETFA) [1] = test: Pre-emergence herbicide glasshouse test
Method: (§1) Seeds of a variety of test species are sown in standard soil in pots Amaranthus retoflexus (AMARE), Amaranthus palmeri (AMAPA), Echinochloa crus-galli (ECHCG), Ipomoea hederacea (IPOHE), Setaria faberi (SETFA). After cultivation for one day (pre-emergence) or after 8 days cultivation (post-emergence) under controlled conditions in a glasshouse (at 24/16° C., day/night; 14 hours light; 65% humidity), the plants are sprayed with an aqueous spray solution derived from the formulation of the technical active ingredient in acetone/water (50:50) solution containing 0.5% Tween 20 (polyoxyethelyene sorbitan monolaurate, CAS RN 9005-64-5). Compounds are applied at 250 g/ha unless otherwise stated. The test plants are then grown in a glasshouse under controlled conditions in a glasshouse (at 24/16° C., day/night; 14 hours light; 65% humidity) and watered twice daily. After 13 days for pre and post-emergence, the test is evaluated for the percentage damage caused to the plant. The biological activities are shown in the following table on a five-point scale (5=81-100%; 4=61-80%; 3=41-60%; 2=21-40%; 1=0-20%).

[2] = tested on: Amaranthus palmeri (AMAPA); test: Pre-emergence herbicide glasshouse test
Method: as §1

[3] = tested on: Echinochloa crus-galli (ECHCG); test: Pre-emergence herbicide glasshouse test
Method: as §1

[4] = tested on: Amaranthus retoflexus (AMARE); test: Pre-emergence herbicide glasshouse test
Method: as §1

[5] = tested on: Ipomoea hederacea (IPOHE); test: Pre-emergence herbicide glasshouse test
Method: as §1

Setaria faberi (SETFA) [6] = test: Post-emergence herbicide glasshouse test
Method: as §1

[7] = tested on: Amaranthus palmeri (AMAPA); test: Post-emergence herbicide glasshouse test
Method: as §1

[8] = tested on: Echinochloa crus-galli (ECHCG); test: Post-emergence herbicide glasshouse test
Method: as §1

[9] = tested on: Amaranthus retoflexus (AMARE); test: Post-emergence herbicide glasshouse test
Method: as §1

[10] = tested on: Ipomoea hederacea (IPOHE); test: Post-emergence herbicide glasshouse test
Method: as §1

| Compound | percentage damage caused to the plant, SETFA (Setaria faberi (SETFA) [1]) | percentage damage caused to the plant, AMAPA [2] | percentage damage caused to the plant, ECHCG [3] | percentage damage caused to the plant, AMARE [4] | percentage damage caused to the plant, IPOHE [5] | percentage damage caused to the plant, SETFA (Setaria faberi (SETFA) [6]) | percentage damage caused to the plant, AMAPA [7] | percentage damage caused to the plant, ECHCG [8] | percentage damage caused to the plant, AMARE [9] | percentage damage caused to the plant, IPOHE [10] |
| --- | --- | --- | --- | --- | --- | --- | --- | --- | --- | --- |
| C=CCON=CCCc1nc(C(F)(F)F)nc2cccc(Oc3ncc(Cl)cn3)c12 [Compound 1.011] | 5 (5=81-100%) | 5 (5=81-100%) | 4 (4=61-80%) | 5 (5=81-100%) | 2 (2=21-40%) | 4 (4=61-80%) | 4 (4=61-80%) | 4 (4=61-80%) | 5 (5=81-100%) | 2 (2=21-40%) |
| CCNC(=O)CCc1nc(C(F)(F)F)nc2cccc(Oc3ncc(Cl)cn3)c12 [Compound 1.012, 3-[5-(5-chloropyrimidin-2-yl)oxy-2-(trifluoromethyl)quinazolin-4-yl]-N-ethyl-propanamide] | 1 (1=0-20%) | 2 (2=21-40%) | 1 (1=0-20%) | 1 (1=0-20%) | 1 (1=0-20%) | 1 (1=0-20%) | 3 (3=41-60%) | 1 (1=0-20%) | 2 (2=21-40%) | 1 (1=0-20%) |
| FC(F)(F)c1ncc(-c2nc(C(F)(F)F)nc3cccc(Oc4ncc(Cl)cn4)c23)cn1 [Compound 1.013, 5-(5-chloropyrimidin-2-yl)oxy-2-(trifluoromethyl)-4-[2-(trifluoromethyl)pyrimidin-5-yl]quinazoline] | 1 (1=0-20%) | 1 (1=0-20%) | 1 (1=0-20%) | 1 (1=0-20%) | 1 (1=0-20%) | 1 (1=0-20%) | 2 (2=21-40%) | 1 (1=0-20%) | 2 (2=21-40%) | 1 (1=0-20%) |
| Cc1ncc(-c2nc(C(F)(F)F)nc3cccc(Oc4ncc(Cl)cn4)c23)cn1 [Compound 1.014] | 1 (1=0-20%) | 2 (2=21-40%) | 1 (1=0-20%) | 2 (2=21-40%) | 1 (1=0-20%) | 1 (1=0-20%) | 1 (1=0-20%) | 1 (1=0-20%) | 1 (1=0-20%) | 1 (1=0-20%) |
| Cc1cnc(Oc2cccc3nc(C(F)(F)F)nc(CCC4CC4)c23)nc1 [Compound 1.015, 4-(2-cyclopropylethyl)-5-(5-methylpyrimidin-2-yl)oxy-2-(trifluoromethyl)quinazoline] | 5 (5=81-100%) | 5 (5=81-100%) | 5 (5=81-100%) | 5 (5=81-100%) | 3 (3=41-60%) | 5 (5=81-100%) | 2 (2=21-40%) | 4 (4=61-80%) | 4 (4=61-80%) | 3 (3=41-60%) |

Source: US20250179051A1, “PYRIMIDINLY-OXY-QUINOLINE BASED HERBICIDAL COMPOUNDS” (SYNGENTA CROP PROTECTION AG, priority 2022, published 2025)
